Results reported in PubChem BioAssay (NCI).
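Tested at 5 concentrations; 48 h exposure; 96-well plates; endpoints linearly interpolated, else capped at highest concentration. TGI denotes the concentration required for complete inhibition of growth.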

Columns and labels:
Experiment in all cases: DTP human tumour cell line panel, 48 h
[1] = system: SK-MEL-2 melanoma
[2] = system: K-562 leukemia
[3] = system: SW-620 colon
[4] = system: PC-3 prostate
[5] = system: SF-268 CNS
[6] = system: RPMI-8226 leukemia
[7] = system: HCC-2998 colon
[8] = system: HCT-15 colon
[9] = system: HT29 colon
[10] = system: DU-145 prostate
[11] = system: UO-31 renal
[12] = system: SF-539 CNS
[13] = system: HOP-92 NSCLC
[14] = system: A549 NSCLC
[15] = system: A498 renal
[16] = system: CAKI-1 renal
[17] = system: SF-295 CNS
[18] = system: MOLT-4 leukemia
[19] = system: SR leukemia

Row | Compound | TGI [1] [µM] | TGI [2] [µM] | TGI [3] [µM] | TGI [4] [µM] | TGI [5] [µM] | TGI [6] [µM] | TGI [7] [µM] | TGI [8] [µM] | TGI [9] [µM] | TGI [10] [µM] | TGI [11] [µM] | TGI [12] [µM] | TGI [13] [µM] | TGI [14] [µM] | TGI [15] [µM] | TGI [16] [µM] | TGI [17] [µM] | TGI [18] [µM] | TGI [19] [µM]
1 | O=C(c1ccco1)N(C(=S)OCCOc1ccccc1)c1ccccc1 | 41.1 | 83.4 | 41.8 | 57.8 | 35.3 | 47.2 | 37.9 | 45.3 | 42.1 | 51.6 | 35.5 | 39 | 37.5 | 90.2 | 33.1 | 48.4 | 36.6 | 55.3 | 
2 | O=c1cc(N2CCCC2)[nH]c(=O)n1-c1cccc(Cl)c1 | > 100 | > 100 | > 100 | > 100 | > 100 | > 100 | > 100 | > 100 | > 100 | > 100 |  | > 100 | > 100 |  | > 100 | > 100 | > 100 | > 100 | 
3 | CC(=O)ONC(C(=O)C(C)(C)C)C(=O)C(C)(C)C | > 100 | > 100 | > 100 | > 100 | > 100 | > 100 | > 100 | > 100 | > 100 | > 100 | > 100 | > 100 | > 100 | > 100 | > 100 | > 100 | > 100 | > 100 | 
4 | CN(C(=O)Cc1cccc(N=C=S)c1)[C@H]1CCCC[C@@H]1N1CCCC1 | 34.4 | 53.2 | 36.2 | 32.2 | 36.4 | 32.3 |  | 31.2 | 26.4 | 27.7 | 29.3 |  | 29 | 33.9 | 32.8 | 29.5 | > 100 | 29 | 29.2
5 | O=C(NC(Cc1ccccc1)(Cc1ccc(O)cn1)C(=O)O)c1ccccc1 (stereo not given) | > 100 | > 100 | > 100 | > 100 | > 100 | > 100 | > 100 | > 100 | > 100 | > 100 | > 100 | > 100 | > 100 | > 100 |  | > 100 | > 100 | > 100 | 
6 | O=C1NC(=S)NC(=O)C1C(c1ccc(O)cc1)C1C(=O)NC(=S)NC1=O | > 100 | > 100 | > 100 | > 100 |  | > 100 |  | > 100 | > 100 | > 100 | > 100 |  | > 100 | > 100 | > 100 | > 100 | > 100 | > 100 | 
7 | C/C(=N/NC(N)=S)c1ccc[nH]1 | > 100 | > 100 | > 100 | > 100 | > 100 | > 100 | > 100 | > 100 | > 100 | > 100 | > 100 | > 100 | > 100 | > 100 | > 100 | > 100 | > 100 | > 100 | 
8 | N#C/C(=C/NC(N)=S)C(N)=O | > 100 |  | > 100 |  | > 100 |  | > 100 | > 100 | > 100 | > 100 | > 100 | > 100 | > 100 | > 100 | > 100 | > 100 | > 100 |  | 
9 | O=c1c2ccccc2nc(Cc2nc(-c3ccc(Cl)cc3)cs2)n1-c1ccc(Cl)cc1 | > 100 | > 100 | > 100 | > 100 | > 100 | 83.9 | > 100 | > 100 | > 100 | > 100 | > 100 |  | > 100 | > 100 | > 100 | > 100 | > 100 | > 100 | 
10 | COc1cc(OC)c2c(C)cc(=O)oc2c1 | > 100 | > 100 | > 100 | > 100 | > 100 | > 100 |  | > 100 | > 100 | > 100 | 79.5 | > 100 |  | > 100 | 76.5 |  | > 100 | > 100 | > 100
11 | CCc1cc(Cc2cc(CC)c(NC(=O)C(=O)CC(=O)c3sc(-c4cccnc4)nc3C)c(CC)c2)cc(CC)c1NC(=O)C(=O)CC(=O)c1sc(-c2cccnc2)nc1C | > 100 | > 100 | > 100 | > 100 | > 100 | > 100 | > 100 | > 100 | > 100 | > 100 | > 100 | > 100 | > 100 | > 100 | > 100 |  | > 100 | > 100 | 
12 | NNC(=S)N/N=C(/C(=O)Nc1ccc(Cl)c(Cl)c1)C(C1OC(=O)c2ccccc21)[N+](=O)[O-] (stereo not given) | > 100 | > 100 | > 100 | > 100 | > 100 | > 100 | > 100 | > 100 | > 100 |  | > 100 | > 100 | > 100 | > 100 | > 100 | > 100 | > 100 | > 100 | 
13 | CN=C(SC)N(C)c1nc(=[N+](C)C)ss1 | > 100 | 69 | > 100 |  | > 100 |  | > 100 | > 100 | > 100 |  | > 100 |  | > 100 | > 100 | > 100 | > 100 | > 100 | > 100 | > 100
